Patent US12115182B2, “Adenosine A2A agonists for the treatment of cytokine storm syndrome” (priority 2021, dated 2024)

What was measured:
[1] = Plasma levels of regadenoson in lung transplant recipients (LC-MS/MS); type: in vivo, human
Experimental: The peripheral blood samples for regadenoson measurement were collected at the following timepoints: 1) Prior to 1st lung reperfusion; 2) 1 hour post 1st lung perfusion; 3) 6 hours post infusion start; 4) 12 hours post infusion start; 5) 24 hours post infusion start. The blood samples were centrifuged, and the plasma samples were collected and stored at −80° C. The levels of regadenoson were determined via liquid chromatography-mass spectrometry with an improved d protocol based on our previous publication (LAU et al., J Heart Lung Transplant, (2020), 39:563-570) at The Mass Spectrometry Center at the School of Pharmacy, University of Maryland, Baltimore (detailed in supplemental methods).
Chemicals and Reagents. Regadenoson (purity 99.83%) was purchased from Selleckchem (Houston, TX, USA) and Regadenoson-d3 ((purity 99.68%) used as internal standard (IS) was obtained from Toronto Research Chemicals, (North York, ON, CT). Optima LC/MS grade water (H2O), methanol, and formic acid (FA) were purchased from Fisher Scientific (Pittsburgh, PA, USA).
Calibration Standards. 1 mg/ml stock solutions of Regadenoson and Regadenoson-d3 were prepared in Dimethyl sulfoxide (DMSO) and further working solutions to spike in plasma were prepared in methanol and water (70:30, v/v). Calibration standards (STD) in plasma ranged from 0.05 ng/ml to 50 ng/ml (8 points: 0.05, 0.1, 1, 5, 20, 30, 40, and 50 ng/ml). Quality control (QC) samples at 3 concentration levels (0.15 ng/ml, LQC; 25 ng/ml, MQC; and 45 ng/ml, HQC) were also prepared in plasma. Internal standard solution (Regadenoson-d3; 250 ng/ml) was prepared in methanol and water (70:30, v/v).
Sample Preparation. 50 μL of plasma sample (STD/QC/test sample) was added into a 2 ml centrifuge tube containing 20 μL of IS solution (250 ng/ml) and mixed well. Next, 500 μL of acetonitrile was added, shaken for 3 min at 2100 rpm, and centrifuged for 10 min at 15000 rpm. 400 μL of supernatant was transferred to glass tube and dried under a steady stream of nitrogen at 35° C. The sample was re-suspended in 100 μL of 0.1% formic acid in H2O: 0.1% formic acid in methanol (1:1 v/v) and injected (3 μl) into LC-MS/MS system.
Liquid Chromatography Tandem Mass Spectrometry (LC-MS/MS). LC-MS/MS analysis was performed on a TSO Altis Triple Stage Quadrupole Mass Spectrometer coupled to an Ultimate 3000 RS Liquid Chromatogram system (Thermo Scientific, San Jose, CA). The LC separation was performed on a BEH C18 column (2.1×50 mm, 1.7 μm) (Waters Corporations, Milford, MA) operated at 30° C. Mobile phase solvent A and B consisted of 0.1% FA in H2O and 0.1% FA in methanol, respectively. The gradient program started with 35% B; followed by a linear gradient to 50% Bin 0.7 min; maintained 50% B until 1.5 min; followed by a linear gradient back to 35% B in 2 min and maintained until 3 min. The flow rate was set at 0.22 ml/min. The retention time of Regadenoson and the IS was 1.09 min, and the total run time was 3 min.
Detection was performed in the positive-ion mode using electrospray ionization (ESI). Source parameters were as follows: spray voltage, 3500; Ion transfer tube temperature, 350; vaporizer temperature, 300; sheath gas pressure, 50; auxiliary gas pressure, 10; and sweet gas, 1. The compound parameters: collision energy (CE), and RF lens were 35 and 77 V, respectively for Regadenoson and the IS. Selected reaction monitoring (SRM) was used for mass detection with the following transitions: Regadenoson (m/z 391.1-259.2; quant) and (m/z 391.1-228.1; qual), Regadenoson-d3 (m/z 394.0-262.2; quant) and (m/z 394.0-228.2; qual). Data collection and analysis was performed by Xcalibur V 2.1 (Thermo Scientific, San Jose, CA).
Analytical parameters: The linear range is 0.05-50 ng/mL in human plasma. Samples that exceeded the upper limit of quantification were diluted 2 or 4 fold and reinjected.

[2] = cited from earlier work
[3] = tested on: MMP-9; assay: Gelatin zymography of plasma MMP-9 in lung transplant recipients; type: in vivo, human; conditions: low and high dose vs control, 30 minutes after 1st and 2nd lung reperfusion
Experimental: We designed this trial mainly as a Phase I safety and feasibility study that would allow an optimal infusional dose to be determined based on dose-limiting toxicities identified in lung transplant recipients. We also evaluated the potential efficacy by clinical outcomes and the lab evaluation of various cytokines/chemokines, DAMPs and enzymes. Blood was drawn for cytokine/chemokine, DAMPs and MMP-2/-9 analysis at the following different timepoints: 1) before infusion, 2) 15 minutes before reperfusion of the 1st lung, 3) 30 minutes after reperfusion of 1st lung, 4) 30 minutes after reperfusion of 2nd lung, and 5) 6 hours after reperfusion of 1st lung. HMGB1 and sRAGE levels were measured using a customized human Cytokine/Chemokine multiplex immunoassay (Millipore Sigma, Burlington, MA) at The University of Virginia Flow Cytometry Core (RRID: SCR_01 7829) as previously described (LAU et al., J Heart Lung Transplant, (2020), 39:563-570).
Plasma samples were collected as described above. Protein concentrations were determined with BCA protein assay. Equal amounts of proteins (20 μg) were loaded in each lane for MMP-2 and-9 gelatinolytic activity detection by use of gelatin zymography as our previous publications (ZHAO et al., J Biol Chem, (2003), 278:15056-15064; ZHAO et al., Am J Physiol Lung Cell Mol Physiol, (2011), 300: L718-729).

CNC(=O)c1cnn(-c2nc(N)c3ncn([C@@H]4O[C@H](CO)[C@@H](O)[C@H]4O)c3n2)c1 [Regadenoson]
median peak plasma levels of regadenoson ([1]; 1.44 ug/kg/hour for 12 hours, preliminary result before dose alteration): 1.68 ng/mL
levels of regadenoson in blood ([1]; after 24 hours post regadenoson infusion): minimal
time of peak drug level post infusion start ([1]; high dose group, 2.88 ug/kg/hr for 12 hours): 12 h
median peak plasma levels of regadenoson ([1]; high dose, 2.88 ug/kg/hr): 14.34 ng/mL
time of peak drug level post infusion start ([1]; low dose group, 1.44 ug/kg/hr for 12 hours): 6 h
median peak plasma levels of regadenoson ([1]; low dose, 1.44 ug/kg/hr): 1.30 ng/mL
peak plasma level ([2]; 400 μg bolus over 10 seconds for myocardial perfusion imaging): about 15 ng/ml
steady-state plasma level ([2]; after infusion for 6 hours of 1.44 μg/kg/h, prior sickle cell disease trial): about 2 ng/ml
terminal half-life ([2]; in vivo): 2 h
safety / side effects ([2]; infusion at 1.44 μg/kg/h for 24-48 h, sickle cell crisis and lung transplantation): safe and devoid of side effects
gelatinolytic activity of MMP-9 in plasma [3]: significantly decreased
